Laboratory results as given in US7868163B2, “Adenyl dinucleotides with antitumour activity and a method of preparing thereof” (Universita' Degli Studi Di Genova, priority 2005, dated 2011).
Read-outs that look alike come from different tables or passages of the source.

How the values were obtained:
[1] = tested on: HeLa-CD38^+ (whole cells); assay: Hydrolysis by CD38+ HeLa whole cells
Experimental: (§1) ADP-ribosyl cyclases from lower and higher Metazoa were incubated in the presence of 0.1 mM cADPR and 1 mM adenine at pH 7.4 in 10 mM Tris-HCl (A, B and C) or in PBS-glucose (D) at 22° C. (A and B) or at 37° C. (C and D) for 4 hours. Aliquots of the various incubations were deproteinised with TCA (trichloroacetic acid) and subjected to HPLC (analytical phosphate). Chromatograms representative of each incubation are shown. A. A. polypoides; B. A. californica; C. Human CD38 (recombinant); D. Human HeLa cells transfected with sense and antisense human CD38 (dashed chromatogram).
(§2) In table 1, the absolute values of the peak-forming and -hydrolysing activities are compared with the cADPR-forming and -hydrolysing activities for each enzyme. The activities are expressed as nmol/min/mg.

CD38^− cells = assay: Uptake of extracellularly added dinucleotides in CD38- cells; assay type: in vitro ADME, human; settings: 15 μM added extracellularly
[2] = Storage stability of purified lyophilised peaks; settings: stored at −20° C., several months (approx. 6)
Experimental: The cyclase purified from A. polypoides was used for the production of the dinucleotides for structural and functional studies. In a total volume of 0.4 ml of 10 mM Tris-HCl, pH 7.0, 0.05 mg of purified cyclase were incubated with 1 mM cADPR (or NAD^+), 5 mM adenine and 2 mM MgCl2 at room temperature. cADPR or NAD^+ was added to the reaction mixture every 6 hours, while every 24 hours fresh cyclase was added and an aliquot of the incubation was deproteinised with TCA (5% final concentration) and analysed by HPLC (analytical phosphate) to monitor dinucleotide production. After 3-5 days, the resulting incubation was extracted with TCA and 250 μl aliquots were injected into an HPLC column (preparative phosphate). The P18, P24 and P31 peaks were collected, lyophilised in a RotoVapor, re-dissolved in deionised water and injected into an HPLC column (preparative formate). […] The purified peaks produced by Axinella cyclase were used in in vitro experiments on the various cell types described hereinafter, for the enzymatic production of mononucleotides and nucleosides (see below), as internal and external HPLC standards to identify the dinucleotides in cell extracts, and for detecting the absorption spectra stored in the liquid chromatograph library as standards.

Recombinant CD38 = assay: Hydrolysis by recombinant CD38
Experimental: as §1, §2

[3] = tested on: A. polypoides ADP-ribosyl cyclase; assay: Hydrolysis by purified Axinella polypoides ADP-ribosyl cyclase
Experimental: as §1, §2

[4] = target: T1, A. californica ADP-ribosyl cyclase (Aplysia californica, UniProt P29241); assay: Hydrolysis by Aplysia californica ADP-ribosyl cyclase; assay type: in vitro ADME; settings: P18 to adenine and ADPR
T1 construct: The cyclase purified from the mollusc Aplysia californica was purchased from Sigma; purchased Sigma; host or cells: purified from the mollusc
T1 sequence (P29241 25-282): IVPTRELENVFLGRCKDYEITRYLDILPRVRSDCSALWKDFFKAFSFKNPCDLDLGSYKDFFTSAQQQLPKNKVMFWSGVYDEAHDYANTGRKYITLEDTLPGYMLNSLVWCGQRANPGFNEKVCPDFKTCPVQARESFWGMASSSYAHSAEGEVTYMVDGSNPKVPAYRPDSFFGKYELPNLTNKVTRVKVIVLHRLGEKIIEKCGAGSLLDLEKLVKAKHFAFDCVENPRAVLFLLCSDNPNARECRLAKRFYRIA
Experimental: (A and B) or at 37° C. (C and D) for 4 hours. […] Chromatograms representative of each incubation are shown. A. A. polypoides; B. A. californica; C.
The activities are expressed as nmol/min/mg.

[5] = tested on: CFC (colony forming cells); assay: CFC colony growth from cord blood mononuclear cells in semi-solid medium; assay type: cell-based, human; settings: Homo sapiens; 24 hours incubation of cord blood mononuclear cells, colonies counted after 2 weeks; read-out: IC50, inhibition of CFC colony growth
Experimental: Mononuclear cells isolated from cord blood were incubated in the presence of various concentrations of P18 (▴), P24 (▪) and the iso-adenosine units resulting from the enzymatic digestion of P18 (Δ) and P24 (□). After 24 hours, aliquots of cells (1-2×10^4) were seeded in semi-solid medium to allow for colony growth. Results are expressed as percentage of inhibition of colony growth compared with controls, represented by cells incubated with the same dilution of chromatographic buffer as present in the HPLC-purified compounds. The IC50 values were obtained from the logarithmic regression curves (R≧0.97). The results shown in this figure are the mean from at least three different experiments.
Mononuclear cells were isolated from cord blood (CB MNC) by a density gradient, washed by centrifugation and resuspended in complete medium (Mosmann, T. (1983) J. Immunol. Methods 65, 55-63). Cells (10^6/ml) were incubated for 24 hours in complete medium in the presence of different dinucleotides at concentrations comprised between 20 and 0.4 μM. Then, aliquots of cells (1-2×10^4) were seeded in semi-solid medium, supplemented with haemopoietic growth factors (Methocult, Stem Cell Technologies, Vancouver, BC), in order to allow colonies to develop. After 2 weeks in culture, the colonies which were grown were microscopically identified according to standard criteria (CFU-E, CFU-GM and CFU-GEM) and counted: each colony identifies a colony forming cell (CFC).

Structure (SMILES): Nc1ncnc2c1ncn2[C@@H]1O[C@H](CO[P@](=O)(O)O[P@](=O)(O)OC[C@H]2O[C@@H](n3cnc4c(N)ncnc43)[C@H](O)[C@@H]2O)[C@@H](O)[C@H]1O [P31, diadenosine diphosphate, reference compound]
- hydrolysis activity ([1]; HeLa-CD38^+ whole cells, P18 and P24 to adenine and ADPR): 0.15 nmol/min/mg
- rate of increase of intracellular concentration (uptake) (CD38^− cells): approx. 2.4 pmol/min/mg
- degradation on storage [2]: no dinucleotide degradation was observed

Structure (SMILES): N=c1c2ncn3c2ncn1[C@@H]1O[C@H](COP(=O)(O)OP(=O)(O)OC[C@H]2O[C@@H]3[C@H](O)[C@@H]2O)[C@@H](O)[C@H]1O [cADPR, cyclic ADP-ribose, reference compound]
- hydrolysis activity (Recombinant CD38): 308 nmol/min/mg
- hydrolysis activity [1]: 0.49 nmol/min/mg
- hydrolysis activity [3]: 170 nmol/min/mg
- hydrolysis activity [4]: 770 nmol/min/mg

Structure (SMILES): Nc1c2ncnc-2ncn1[C@@H]1O[C@H](CO)[C@@H](O)[C@H]1O [iso-adenosine from P18, 1-β-D-ribofuranosyladenine]
- IC50 [5]: 37 µM

Structure (SMILES): Nc1ncn([C@@H]2O[C@H](CO)[C@@H](O)[C@H]2O)c2ncnc1-2 [iso-adenosine from P24, 3-β-ribofuranosyladenine]
- IC50 [5]: 5 µM
